Test results as given in PubChem BioAssay AID2060898 (Molecular Pharmacology Branch, DTP, NCI, 2025).

System: 616215-338-R-J1-PDC complex spheroid viability
Assay: Anticancer human tumor 616215-338-R-J1-PDC patient-derived colon adenocarcinoma cell line growth inhibition [RAS]
Conditions: for IC50: curve of first compound; for viability, T/C: stronger effect = lower value
Method in brief: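 Tumour cells grown as complex spheroids with HUVEC endothelial cells and mesenchymal stem cells, treated with RAS pathway inhibitor combinations. Each agent spans half-log steps from near clinical Cmax, or 10 microM where Cmax is unknown.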

[1] = second compound 0.000949 µM, first compound 0.0316 µM
[2] = second compound 0.000949 µM, first compound 0.1 µM
[3] = second compound 0.000949 µM, first compound 0.316 µM
[4] = second compound 0.000949 µM, first compound 1 µM
[5] = second compound 0.000949 µM, first compound 3.16 µM
[6] = second compound 0.000949 µM, first compound 10 µM
[7] = second compound 0.003 µM, first compound 0.0316 µM
[8] = second compound 0.003 µM, first compound 0.1 µM
[9] = second compound 0.003 µM, first compound 0.316 µM
[10] = second compound 0.003 µM, first compound 1 µM
[11] = second compound 0.003 µM, first compound 3.16 µM
[12] = second compound 0.003 µM, first compound 10 µM
[13] = second compound 0.00949 µM, first compound 0.0316 µM
[14] = second compound 0.00949 µM, first compound 0.1 µM
[15] = second compound 0.00949 µM, first compound 0.316 µM
[16] = second compound 0.00949 µM, first compound 1 µM
[17] = second compound 0.00949 µM, first compound 3.16 µM
[18] = second compound 0.00949 µM, first compound 10 µM
[19] = second compound 0.03 µM, first compound 0.0316 µM
[20] = second compound 0.03 µM, first compound 0.1 µM
[21] = second compound 0.03 µM, first compound 0.316 µM
[22] = second compound 0.03 µM, first compound 1 µM
[23] = second compound 0.03 µM, first compound 3.16 µM
[24] = second compound 0.03 µM, first compound 10 µM
[25] = second compound 0.0949 µM, first compound 0.0316 µM
[26] = second compound 0.0949 µM, first compound 0.1 µM
[27] = second compound 0.0949 µM, first compound 0.316 µM
[28] = second compound 0.0949 µM, first compound 1 µM
[29] = second compound 0.0949 µM, first compound 3.16 µM
[30] = second compound 0.0949 µM, first compound 10 µM
[31] = second compound 0.3 µM, first compound 0.0316 µM
[32] = second compound 0.3 µM, first compound 0.1 µM
[33] = second compound 0.3 µM, first compound 0.316 µM
[34] = second compound 0.3 µM, first compound 1 µM
[35] = second compound 0.3 µM, first compound 3.16 µM
[36] = second compound 0.3 µM, first compound 10 µM
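Further: spheroids exposed to agents for seven days before viability readout.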
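Wherever viability, T/C is given: 100% = DMSO vehicle control viability.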

CC1(O)CCCC1n1c(=O)c(C(F)F)cc2cnc(NC3CCN(S(C)(=O)=O)CC3)nc21 (centres undefined) + CCn1c(-c2cccnc2C(C)OC)c2c3cc(ccc31)N1CCOC(CC(NC(=O)C(C(C)C)N(C)C(=O)C3(F)CCN(C(=O)C#CC(C)(C)N(C)C)CC3)C(=O)N3CCCC(N3)C(=O)OCC(C)(C)C2)C1
IC50 (second compound 0.000949 µM): 1180 nM | IC50 (second compound 0.003 µM): 1290 nM | IC50 (second compound 0.00949 µM): 1340 nM | IC50 (second compound 0.03 µM): 1160 nM | IC50 (second compound 0.0949 µM): 1180 nM | IC50 (second compound 0.3 µM): 830 nM | viability, T/C [1]: 112% | viability, T/C [2]: 105% | viability, T/C [3]: 57.5% | viability, T/C [4]: 53.3% | viability, T/C [5]: 48.3% | viability, T/C [6]: 3.43% | viability, T/C [7]: 114% | viability, T/C [8]: 109% | viability, T/C [9]: 58.3% | viability, T/C [10]: 56.5% | viability, T/C [11]: 49.9% | viability, T/C [12]: 3.17% | viability, T/C [13]: 109% | viability, T/C [14]: 112% | viability, T/C [15]: 61.9% | viability, T/C [16]: 55.3% | viability, T/C [17]: 50.3% | viability, T/C [18]: 3.71% | viability, T/C [19]: 118% | viability, T/C [20]: 112% | viability, T/C [21]: 55.1% | viability, T/C [22]: 50% | viability, T/C [23]: 46% | viability, T/C [24]: 4.07% | viability, T/C [25]: 108% | viability, T/C [26]: 102% | viability, T/C [27]: 60.8% | viability, T/C [28]: 51% | viability, T/C [29]: 49.8% | viability, T/C [30]: 4.02% | viability, T/C [31]: 95.5% | viability, T/C [32]: 74.3% | viability, T/C [33]: 44.1% | viability, T/C [34]: 52.6% | viability, T/C [35]: 52.4% | viability, T/C [36]: 3.81%

CCC(CC)c1cc(NC2CCC(N)C2)n2nccc2n1 (centres undefined) + CCn1c(-c2cccnc2C(C)OC)c2c3cc(ccc31)N1CCOC(CC(NC(=O)C(C(C)C)N(C)C(=O)C3(F)CCN(C(=O)C#CC(C)(C)N(C)C)CC3)C(=O)N3CCCC(N3)C(=O)OCC(C)(C)C2)C1
IC50 (second compound 0.000949 µM): 1820 nM | IC50 (second compound 0.003 µM): 1760 nM | IC50 (second compound 0.00949 µM): 1770 nM | IC50 (second compound 0.03 µM): 1770 nM | IC50 (second compound 0.0949 µM): 1810 nM | IC50 (second compound 0.3 µM): 1570 nM | viability, T/C [1]: 107% | viability, T/C [2]: 89.4% | viability, T/C [3]: 109% | viability, T/C [4]: 107% | viability, T/C [5]: 0.55% | viability, T/C [6]: 0.29% | viability, T/C [7]: 101% | viability, T/C [8]: 94.6% | viability, T/C [9]: 89.1% | viability, T/C [10]: 106% | viability, T/C [11]: 0.5% | viability, T/C [12]: 0.26% | viability, T/C [13]: 92.2% | viability, T/C [14]: 92.8% | viability, T/C [15]: 101% | viability, T/C [16]: 111% | viability, T/C [17]: 0.46% | viability, T/C [18]: 0.26% | viability, T/C [19]: 101% | viability, T/C [20]: 93.3% | viability, T/C [21]: 91.2% | viability, T/C [22]: 109% | viability, T/C [23]: 0.45% | viability, T/C [24]: 0.22% | viability, T/C [25]: 103% | viability, T/C [26]: 110% | viability, T/C [27]: 106% | viability, T/C [28]: 102% | viability, T/C [29]: 0.44% | viability, T/C [30]: 0.27% | viability, T/C [31]: 114% | viability, T/C [32]: 112% | viability, T/C [33]: 116% | viability, T/C [34]: 82.1% | viability, T/C [35]: 0.46% | viability, T/C [36]: 0.29%
